Experimental data as given in patent US20250382273A1 (INSTITUT NATIONAL DE LA SANTE ET DE LA RECHERCHE MEDICALE, priority 2022, published 2025).
Read-outs that look alike come from different tables or passages of the source.

Tested on: M. tuberculosis H37Rv_gfp
Type: cell-based, Mycobacterium tuberculosis
[1] = in combination with pretomanid 20 ng·mL−1, 5 days at 37° C., […], read-out: EC50 H37Rv_gfp
[2] = in combination with pretomanid, unit inferred, read-out: average EC50 H37Rv_gfp

Row | SMILES | EC50 [1] [nM] | EC50 [2] [nM] | EC50 (read-out: EC50 H37Rv_gfp) [nM]
1 | Cc1ccc2nc(NC(=O)[C@@H]3C4CCC(C4)[C@@H]3C(=O)O)sc2c1 (stereo in doubt) [Example 3, 3-[(6-methyl-1,3-benzothiazol-2-yl)carbamoyl]norbornane-2-carboxylic acid] | 1000 to 5000 | – | –
2 | Cc1ccc2nc(N3C(=O)[C@@H]4[C@@H]5CC[C@@H](C5)[C@@H]4C3=O)sc2c1 [Example 4, (1S,2S,6R,7R)-4-(6-methyl-1,3-benzothiazol-2-yl)-4-azatricyclo[5.2.1.02,6]decane-3,5-dione] | 10000 to 20000 | – | –
3 | COc1ccc2sc(NC(=O)[C@@H]3C4C=CC(C4)[C@@H]3C(=O)O)nc2c1 (stereo partly drawn) [Example 5, 3-[(5-methoxy-1,3-benzothiazol-2-yl)carbamoyl]bicyclo[2.2.1]hept-5-ene-2-carboxylic acid] | 1000 to 5000 | – | –
4 | COc1ccc2nc(NC(=O)[C@@H]3C4C=CC(C4)[C@@H]3C(=O)O)sc2c1 (stereo partly drawn) [Example 6, 3-[(6-methoxy-1,3-benzothiazol-2-yl)carbamoyl]bicyclo[2.2.1]hept-5-ene-2-carboxylic acid] | 1000 to 5000 | – | –
5 | CCOc1ccc2nc(NC(=O)[C@@H]3C4C=CC(C4)[C@@H]3C(=O)O)sc2c1 (stereo partly drawn) [Example 7, 3-[(6-ethoxy-1,3-benzothiazol-2-yl)carbamoyl]bicyclo[2.2.1]hept-5-ene-2-carboxylic acid] | < 1000 | 150 | –
6 | CCOc1ccc2nc(N3C(=O)[C@@H]4[C@H](C3=O)[C@@H]3C=C[C@H]4C3)sc2c1 [Example 8, (1R,2S,6R,7S)-4-(6-ethoxy-1,3-benzothiazol-2-yl)-4-azatricyclo[5.2.1.02,6]dec-8-ene-3,5-dione] | < 1000 | – | –
7 | COc1cc2nc(NC(=O)[C@@H]3C4C=CC(C4)[C@@H]3C(=O)O)sc2cc1OC (stereo partly drawn) [Example 9, 3-[(5,6-dimethoxy-1,3-benzothiazol-2-yl)carbamoyl]bicyclo[2.2.1]hept-5-ene-2-carboxylic acid] | 5000 to 10000 | – | –
8 | O=C(Nc1nc2cc3c(cc2s1)OCCO3)[C@@H]1C2C=CC(C2)[C@@H]1C(=O)O (stereo partly drawn) [Example 10, 3-(6,7-dihydro-[1,4]dioxino[2,3-f][1,3]benzothiazol-2-ylcarbamoyl) bicyclo[2.2.1]hept-5-ene-2-carboxylic acid] | 10000 to 20000 | – | –
9 | CCc1ccc2nc(NC(=O)[C@@H]3C4C=CC(C4)[C@@H]3C(=O)O)sc2c1 (stereo partly drawn) [Example 11, 3-[(6-ethyl-1,3-benzothiazol-2-yl)carbamoyl]bicyclo[2.2.1]hept-5-ene-2-carboxylic acid] | < 1000 | – | –
10 | CC(C)(C)c1ccc2nc(NC(=O)[C@@H]3C4C=CC(C4)[C@@H]3C(=O)O)sc2c1 (stereo partly drawn) [Example 12, 3-[(6-tert-butyl-1,3-benzothiazol-2-yl)carbamoyl]bicyclo[2.2.1]hept-5-ene-2-carboxylic acid] | < 1000 | – | –
11 | Cc1cc(C)c2nc(NC(=O)[C@@H]3C4C=CC(C4)[C@@H]3C(=O)O)sc2c1 (stereo partly drawn) [Example 13, 3-[(4,6-dimethyl-1,3-benzothiazol-2-yl)carbamoyl]bicyclo[2.2.1]hept-5-ene-2-carboxylic acid] | < 1000 | – | –
12 | Cc1cc2nc(NC(=O)[C@@H]3C4C=CC(C4)[C@@H]3C(=O)O)sc2cc1C (stereo partly drawn) [Example 14, 3-[(5,6-dimethyl-1,3-benzothiazol-2-yl)carbamoyl]bicyclo[2.2.1]hept-5-ene-2-carboxylic acid] | < 1000 | – | –
13 | Cc1ccc2sc(NC(=O)[C@@H]3C4C=CC(C4)[C@@H]3C(=O)O)nc2c1C (stereo partly drawn) [Example 15, 3-[(4,5-dimethyl-1,3-benzothiazol-2-yl)carbamoyl]bicyclo[2.2.1]hept-5-ene-2-carboxylic acid] | < 1000 | – | –
14 | Cc1cccc2sc(NC(=O)[C@@H]3C4C=CC(C4)[C@@H]3C(=O)O)nc12 (stereo partly drawn) [Example 16, 3-[(4-methyl-1,3-benzothiazol-2-yl)carbamoyl]bicyclo[2.2.1]hept-5-ene-2-carboxylic acid] | < 1000 | – | –
15 | O=C(Nc1nc2ccc(Oc3ccccc3)cc2s1)[C@@H]1C2C=CC(C2)[C@@H]1C(=O)O (stereo partly drawn) [Example 17, 3-[(6-phenoxy-1,3-benzothiazol-2-yl)carbamoyl]bicyclo[2.2.1]hept-5-ene-2-carboxylic acid] | < 1000 | – | –
16 | O=C1[C@@H]2[C@H](C(=O)N1c1nc3ccc(Oc4ccccc4)cc3s1)[C@@H]1C=C[C@H]2C1 [Example 19, (1R,2S,6R,7S)-4-(6-phenoxy-1,3-benzothiazol-2-yl)-4-azatricyclo[5.2.1.02,6]dec-8-ene-3,5-dione] | < 1000 | – | –
17 | O=C(Nc1nc2ccc(Cc3ccccc3)cc2s1)[C@@H]1C2C=CC(C2)[C@@H]1C(=O)O (stereo partly drawn) [Example 20, 3-[(6-benzyl-1,3-benzothiazol-2-yl)carbamoyl]bicyclo[2.2.1]hept-5-ene-2-carboxylic acid] | < 1000 | – | –
18 | O=C(Nc1nc2ccc(Oc3ccc(F)cc3)cc2s1)[C@@H]1C2C=CC(C2)[C@@H]1C(=O)O (stereo partly drawn) [Example 21, 3-[[6-(4-fluorophenoxy)-1,3-benzothiazol-2-yl]carbamoyl]bicyclo[2.2.1]hept-5-ene-2-carboxylic acid] | < 1000 | 270 | –

Row | SMILES | EC50 [1] [nM] | EC50 [2] [nM] | EC50 (read-out: EC50 H37Rv_gfp) [nM]
19 | O=C(Nc1nc2ccc(Oc3ccc(C(F)(F)F)cc3)cc2s1)[C@@H]1C2C=CC(C2)[C@@H]1C(=O)O (stereo partly drawn) [Example 22, 3-[[6-[4-(trifluoromethyl)phenoxy]-1,3-benzothiazol-2-yl]carbamoyl]bicyclo[2.2.1]hept-5-ene-2-carboxylic acid] | 1000 to 5000 | – | –
20 | O=C1[C@@H]2[C@H](C(=O)N1c1nc3ccc(Oc4ccc(C(F)(F)F)cc4)cc3s1)[C@@H]1C=C[C@H]2C1 [Example 23, (1R,2S,6R,7S)-4-[6-[4-(trifluoromethyl)phenoxy]-1,3-benzothiazol-2-yl]-4-azatricyclo[5.2.1.02,6]dec-8-ene-3,5-dione] | 1000 to 5000 | – | –
21 | O=C(Nc1nc2ccc(Oc3ccncc3)cc2s1)[C@@H]1C2C=CC(C2)[C@@H]1C(=O)O (stereo partly drawn) [Example 24, 3-[[6-(4-pyridyloxy)-1,3-benzothiazol-2-yl]carbamoyl]bicyclo[2.2.1]hept-5-ene-2-carboxylic acid] | 5000 to 10000 | – | –
22 | O=C(Nc1nc2ccc(Oc3ncccc3C(F)(F)F)cc2s1)[C@@H]1C2C=CC(C2)[C@@H]1C(=O)O (stereo partly drawn) [Example 25, 3-[[6-[[3-(trifluoromethyl)-2-pyridyl]oxy]-1,3-benzothiazol-2-yl]carbamoyl]bicyclo[2.2.1]hept-5-ene-2-carboxylic acid] | 1000 to 5000 | – | –
23 | O=C1[C@@H]2[C@H](C(=O)N1c1nc3ccc(Oc4ncccc4C(F)(F)F)cc3s1)[C@@H]1C=C[C@H]2C1 [Example 26, (1R,2S,6R,7S)-4-[6-[[3-(trifluoromethyl)-2-pyridyl]oxy]-1,3-benzothiazol-2-yl]-4-azatricyclo[5.2.1.02,6]dec-8-ene-3,5-dione] | 1000 to 5000 | – | –
24 | O=C1[C@@H]2[C@H](C(=O)N1c1nc3ccc(Oc4cc(C(F)(F)F)ccn4)cc3s1)[C@@H]1C=C[C@H]2C1 [Example 28, (1R,2S,6R,7S)-4-[6-[[4-(trifluoromethyl)-2-pyridyl]oxy]-1,3-benzothiazol-2-yl]-4-azatricyclo[5.2.1.02,6]dec-8-ene-3,5-dione] | – | – | < 1000
25 | Cc1ccnc(Oc2ccc3nc(NC(=O)[C@@H]4C5C=CC(C5)[C@@H]4C(=O)O)sc3c2)c1 (stereo partly drawn) [Example 29, 3-[[6-[(4-methyl-2-pyridyl)oxy]-1,3-benzothiazol-2-yl]carbamoyl]bicyclo[2.2.1]hept-5-ene-2-carboxylic acid] | < 1000 | – | –
26 | Cc1ccnc(Oc2ccc3nc(N4C(=O)[C@@H]5C6C=CC(C6)[C@@H]5C4=O)sc3c2)c1 [Example 30] | < 1000 | – | –
27 | N#Cc1ccnc(Oc2ccc3nc(N4C(=O)[C@@H]5[C@H](C4=O)[C@@H]4C=C[C@H]5C4)sc3c2)c1 [Example 31, 2-[[2-[(1R,2S,6R,7S)-3,5-dioxo-4-azatricyclo[5.2.1.02,6]dec-8-en-4-yl]-1,3-benzothiazol-6-yl]oxy]pyridine-4-carbonitrile] | 1000 to 5000 | – | –
28 | O=C(Nc1nc2ccc(Oc3ccnc(C(F)(F)F)c3)cc2s1)[C@@H]1C2C=CC(C2)[C@@H]1C(=O)O (stereo partly drawn) [Example 32, 3-[[6-[[2-(trifluoromethyl)-4-pyridyl]oxy]-1,3-benzothiazol-2-yl]carbamoyl]bicyclo[2.2.1]hept-5-ene-2-carboxylic acid] | < 1000 | 320 | –
29 | O=C1[C@@H]2[C@H](C(=O)N1c1nc3ccc(Oc4cccc(C(F)(F)F)n4)cc3s1)[C@@H]1C=C[C@H]2C1 [Example 34, (1R,2S,6R,7S)-4-[6-[[6-(trifluoromethyl)-2-pyridyl]oxy]-1,3-benzothiazol-2-yl]-4-azatricyclo[5.2.1.02,6]dec-8-ene-3,5-dione] | 1000 to 5000 | – | –
30 | O=C(Nc1nc2ccc(Oc3ccc(C(F)(F)F)cn3)cc2s1)[C@@H]1C2C=CC(C2)[C@@H]1C(=O)O (stereo partly drawn) [Example 35, 3-[[6-[[5-(trifluoromethyl)-2-pyridyl]oxy]-1,3-benzothiazol-2-yl]carbamoyl]bicyclo[2.2.1]hept-5-ene-2-carboxylic acid] | 1000 to 5000 | – | –
31 | O=C1[C@@H]2[C@H](C(=O)N1c1nc3ccc(Oc4ccc(C(F)(F)F)cn4)cc3s1)[C@@H]1C=C[C@H]2C1 [Example 36, (1R,2S,6R,7S)-4-[6-[[5-(trifluoromethyl)-2-pyridyl]oxy]-1,3-benzothiazol-2-yl]-4-azatricyclo[5.2.1.02,6]dec-8-ene-3,5-dione] | < 1000 | 220 | –
32 | O=C(Nc1nc2ccc(Oc3ccc(Br)cn3)cc2s1)[C@@H]1C2C=CC(C2)[C@@H]1C(=O)O (stereo partly drawn) [Example 37, 3-[[6-[(5-bromo-2-pyridyl)oxy]-1,3-benzothiazol-2-yl]carbamoyl]bicyclo [2.2.1]hept-5-ene-2-carboxylic acid] | 1000 to 5000 | – | –
33 | O=C(O)C1C2C=CC(C2)C1C(=O)Nc1nc2ccc([N+](=O)[O-])cc2s1 (stereo not drawn) [Example 38, 3-[(6-nitro-1,3-benzothiazol-2-yl)carbamoyl]bicyclo[2.2.1]hept-5-ene-2-carboxylic acid] | 1000 to 5000 | – | –
34 | N#Cc1ccc2nc(NC(=O)[C@@H]3C4C=CC(C4)[C@@H]3C(=O)O)sc2c1 (stereo partly drawn) [Example 40, 3-[(6-cyano-1,3-benzothiazol-2-yl)carbamoyl]bicyclo[2.2.1]hept-5-ene-2-carboxylic acid] | – | – | 1000 to 5000
35 | COC(=O)c1ccc2nc(NC(=O)[C@@H]3C4C=CC(C4)[C@@H]3C(=O)O)sc2c1 (stereo partly drawn) [Example 41, 3-[(6-methoxycarbonyl-1,3-benzothiazol-2-yl)carbamoyl]bicyclo[2.2.1]hept-5-ene-2-carboxylic acid] | 1000 to 5000 | – | –
